Source: US5885992A, “Triterpene derivative and medicinal composition” (Nippon Shinyaku Company, Limited, priority 1994, dated 1999)

What was measured:
[1] = test system: mesangial cells; assay: Effect on anti-Thy-1 antibody nephritis in rats (number of mesangial cells per glomerulus); assay type: in vivo, rat; conditions: 100 mg/kg p.o. once a day for 7 days, n=5, mean ± standard error, **P < 0.01, controls (distilled water): 59.5 ± 3.5 (No. 1), 61.8 ± 2.2 (No. 2), 54.8 ± 2.1 (No. 9), intact animal 43
Experimental: Anti-Thy-1 antibody-induced nephritis is a model of glomerulonephritis constructed by utilizing the reaction between the Thy-1 antigen occurring as a membrane protein of mesangial cells and the antibody to the antigen. In this model, injuries to mesangial cells and lesions associated with mesangial cell proliferation are found.
Preparation of anti-Thy-1 antibody
Preparation of the antibody was carried out in accordance with the method of Ishizaki et al. referred to above. Thus, an adjuvant suspension of rat thymocytes was prepared and subcutaneously administered to rabbits for immunization. After two booster doses, the blood was collected and the serum separated was subjected to inactivation and absorption to provide an antiserum (anti-Thy-1 antibody).
A predetermined amount of the antiserum was injected intravenously from the tail vein of rats to induce nephritis. Starting the following day after injection, a suspension of the test drug was administered orally once a day for 7 days. On day 8 following the beginning of administration, the animals were sacrificed and the kidneys were removed. The kidney was fixed in 10% phosphate-buffered formalin and, in the routine manner, paraffin sections were prepared and stained with periodic acid-schiff stain for microscopy. For histopathological evaluation, the number of cells in the glomeruli (mainly mesangial cells) in each tissue preparation was counted under a light microscope. Statistical analysis was performed by unpaired t-test.

[2] = test system: MRL/lpr mice; assay: Effect on nephritis in MRL/lpr mice: incidence of proteinuria; assay type: in vivo, mouse; conditions: 10 weeks; for Number of animals with proteinuria, grade 1+ (30-100 mg/dl) / Number of animals with proteinuria, grade - (negative): control 0 of 12; for Number of animals with proteinuria, grade 3+ (300-1000 mg/dl): control 1 of 12; for Number of animals with proteinuria, grade 2+ (100-300 mg/dl): control 4 of 12; for Number of animals with proteinuria, grade 4+ (>1000 mg/dl): control 7 of 12, *P < 0.05
Experimental: (§1) Effect on nephritis in MRL/lpr mice
(§2) The MRL/lpr mouse is a model of lupus nephritis in mice which spontaneously and secondarily develop proliferative glomerulonephritis due to autoimmune disease. Using this nephritis model, a 10-week long-term oral administration experiment with the test drugs was performed.
(§3) MRL/lpr mice purchased from Jackson Laboratory and maintained in Nippon Shinyaku Co., Ltd. were used.
(§4) A suspension of each test drug was administered orally once a day on 6 days per week from the age 8 weeks for 10 weeks. During the administration period, the semi-quantitative test for urinary protein (regent strips) was performed. At the end of the administration period, the animals were sacrificed and the kidneys were removed. The kidney was fixed in 10% phosphate-buffered formalin and, in the routine manner, paraffin sections were prepared and stained with periodic acid-Schiff stain for microscopy. For histopathological evaluation, the glomerular lesions in each tissue preparation were observed by light microscopy and graded according to the method of Berden (J. Immunology, 130, 1699-1705, 1983) and the incidence (%) of each grade was calculated for each group. Statistical analysis was performed by Mann Whitney's rank-sum test.

[3] = test system: glomeruli; assay: Effect on nephritis in MRL/lpr mice: histopathological findings of glomeruli; assay type: in vivo, mouse; conditions: 10 weeks; for Incidence of glomerular lesions, grade - (no remarkable change): control 1; for Incidence of glomerular lesions, grade 4+ (extremely marked change): control 8, **P < 0.01; for Incidence of glomerular lesions, grade 1+ (slight change): control 14; for Incidence of glomerular lesions, grade 3+ (marked change): control 25; for Incidence of glomerular lesions, grade 2+ (moderate change): control 52
Experimental: as §1, §2, §3, §4

[4] = test system: mice; assay: Acute toxicity; assay type: in vivo, mouse; conditions: 2 g/kg p.o.; for Acute toxicity: abnormal findings: general condition up to 1 week; for Acute toxicity: death: observed up to 1 week
Text: Compound No. 1 and the compound No. 9 were examined.

[5] = test system: mesangial cells; assay: Inhibitory effect on mesangial cell proliferation in vitro; assay type: cell-based; conditions: Rattus norvegicus, 10 μg/ml, 72 hours, LPS-stimulated macrophage culture supernatant, crystal violet, relative to control, read-out: Inhibition rate of mesangial cell proliferation in vitro
Experimental: Inhibitory effect on mesangial cell proliferation in vitro
Glomeruli were isolated from the rat kidney by the sieving method. Mesangial cells were obtained from isolated these glomeruli which were maintained in culture. The mesangial cells were seeded on the plate and, after 24 hours, an LPS (lipopolysaccharide)-stimulated macrophage culture supernatant (a solution containing growth factor) and the test drug were added and the plate was incubated for 72 hours. The mesangial cells were fixed and stained with crystal violet and the absorbance was measured. The inhibitory activity of the mesangial cell proliferation of the test compound was evaluated in relative inhibition rate (%) in comparison with the absorbance of the control obtained under the same culture conditions.

Question: Which “Number of mesangial cells per glomerulus” value [1] does the source give for `CC1(C)CC[C@]2(C(=O)O)CC[C@]3(C)C(=CC[C@@H]4[C@@]5(C)CC[C@H](O)[C@@](C)(CO)[C@@H]5CC[C@]43C)[C@@H]2C1` [Compound No. 1, 3β,23-dihydroxyolean-12-en-28-oic acid] here?
Answer: 48.2 ± 1.6

Question: And the “Number of animals with proteinuria, grade 1+ (30-100 mg/dl)” value ([2]; 10 mg/kg p.o., n=13)?
Answer: 7

Question: And the “Number of animals with proteinuria, grade - (negative)” value ([2]; 10 mg/kg p.o., n=13)?
Answer: 0

Question: What about the “Number of animals with proteinuria, grade 3+ (300-1000 mg/dl)” value ([2]; 10 mg/kg p.o., n=13) of the same molecule?
Answer: 1

Question: What about the “Number of animals with proteinuria, grade 2+ (100-300 mg/dl)” value ([2]; 10 mg/kg p.o., n=13) of the same molecule?
Answer: 2

Question: What about the “Number of animals with proteinuria, grade 4+ (>1000 mg/dl)” value ([2]; 10 mg/kg p.o., n=13) of the same molecule?
Answer: 3

Question: And the “Number of animals with proteinuria, grade 1+ (30-100 mg/dl)” value ([2]; 30 mg/kg p.o., n=14)?
Answer: 4

Question: And the “Number of animals with proteinuria, grade - (negative)” value ([2]; 30 mg/kg p.o., n=14)?
Answer: 3

Question: And the “Number of animals with proteinuria, grade 3+ (300-1000 mg/dl)” value ([2]; 30 mg/kg p.o., n=14)?
Answer: 5

Question: What about the “Number of animals with proteinuria, grade 2+ (100-300 mg/dl)” value ([2]; 30 mg/kg p.o., n=14) of the same molecule?
Answer: 0

Question: And the “Number of animals with proteinuria, grade 4+ (>1000 mg/dl)” value ([2]; 30 mg/kg p.o., n=14)?
Answer: 2

Question: And the “Incidence of glomerular lesions, grade - (no remarkable change)” value ([3]; 10 mg/kg p.o.)?
Answer: 3%

Question: And the “Incidence of glomerular lesions, grade 4+ (extremely marked change)” value ([3]; 10 mg/kg p.o.)?
Answer: 2%

Question: What about the “Incidence of glomerular lesions, grade 1+ (slight change)” value ([3]; 10 mg/kg p.o.) of the same molecule?
Answer: 29%

Question: And the “Incidence of glomerular lesions, grade 3+ (marked change)” value ([3]; 10 mg/kg p.o.)?
Answer: 9%

Question: And the “Incidence of glomerular lesions, grade 2+ (moderate change)” value ([3]; 10 mg/kg p.o.)?
Answer: 57%

Question: What about the “Incidence of glomerular lesions, grade - (no remarkable change)” value ([3]; 30 mg/kg p.o.) of the same molecule?
Answer: 3%

Question: And the “Incidence of glomerular lesions, grade 4+ (extremely marked change)” value ([3]; 30 mg/kg p.o.)?
Answer: 0%

Question: And the “Incidence of glomerular lesions, grade 1+ (slight change)” value ([3]; 30 mg/kg p.o.)?
Answer: 25%

Question: What about the “Incidence of glomerular lesions, grade 3+ (marked change)” value ([3]; 30 mg/kg p.o.) of the same molecule?
Answer: 9%

Question: What about the “Incidence of glomerular lesions, grade 2+ (moderate change)” value ([3]; 30 mg/kg p.o.) of the same molecule?
Answer: 63%

Question: What about the “Acute toxicity: abnormal findings” value [4] of the same molecule?
Answer: nor was there any abnormal findings

Question: What about the “Acute toxicity: death” value [4] of the same molecule?
Answer: no death was encountered

Question: How did the “Number of mesangial cells per glomerulus” value [1] turn out when `CC(=O)OCCOC(=O)[C@]12CCC(C)(C)C[C@H]1C1=CC[C@@H]3[C@@]4(C)CC[C@H](O)[C@@](C)(CO)[C@@H]4CC[C@@]3(C)[C@]1(C)CC2` [Compound No. 2, 2-Acetoxyethyl 3β,23(4α)-dihydroxyolean-12-en-28-oate] was run?
Answer: 50.9 ± 1.3

Question: What about the inhibition at 10 µg/mL [5] of the same molecule?
Answer: 57.9%

Question: Which results are given for `COCCNC(=O)[C@]12CCC(C)(C)C[C@H]1C1=CC[C@@H]3[C@@]4(C)CC[C@H](O)[C@@](C)(CO)[C@@H]4CC[C@@]3(C)[C@]1(C)CC2` [Compound No. 9, N-(2-methoxyethyl)-3β,23(4α)-dihydroxyolean-12-en-28-amide]?
Answer: Number of mesangial cells per glomerulus [1]: 45.8 ± 0.7; inhibition at 10 µg/mL [5]: 43.3%; Acute toxicity: abnormal findings [4]: nor was there any abnormal findings; Acute toxicity: death [4]: no death was encountered
